{"source": "paper PMC11843331", "about": "“Metal-Triggered FAD Reduction in D-2-Hydroxyglutarate Dehydrogenase from Pseudomonas aeruginosa PAO1” (ACS Bio & Med Chem Au, 2024)", "target": "T1, PaD2HGDH; Pseudomonas aeruginosa D-2-hydroxyglutarate dehydrogenase (Pseudomonas aeruginosa, UniProt Q9I6H4)", "T1 construct": "gene PA0317; recombinant from pET20b(+) harboring PA0317 (GenScript), purified to homogeneity; FAD- and Zn2+-containing", "T1 sequence (Q9I6H4 1-464)": "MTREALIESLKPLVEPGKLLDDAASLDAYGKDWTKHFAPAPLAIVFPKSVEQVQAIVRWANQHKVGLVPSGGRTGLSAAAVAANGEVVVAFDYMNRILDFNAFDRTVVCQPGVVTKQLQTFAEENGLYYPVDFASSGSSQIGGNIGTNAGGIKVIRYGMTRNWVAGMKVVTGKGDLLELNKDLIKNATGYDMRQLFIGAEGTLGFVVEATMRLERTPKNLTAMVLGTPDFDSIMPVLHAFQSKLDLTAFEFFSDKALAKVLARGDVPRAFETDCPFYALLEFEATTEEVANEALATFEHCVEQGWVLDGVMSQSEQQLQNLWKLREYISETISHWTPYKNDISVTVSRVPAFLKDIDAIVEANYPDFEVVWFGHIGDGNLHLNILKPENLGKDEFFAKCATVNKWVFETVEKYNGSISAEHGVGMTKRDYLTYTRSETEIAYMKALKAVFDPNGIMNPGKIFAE", "assay": "UV-visible absorption of enzyme-bound flavin, anaerobic reduction by D-malate", "assay_type": "binding", "conditions": "1 mM ZnCl2, pH 10.0, 25 °C; co-purified bound cofactor"}
{"smiles": "Cc1cc2nc3c(=O)[nH]c(=O)nc-3n(C[C@H](O)[C@H](O)[C@H](O)COP(=O)(O)OP(=O)(O)OC[C@H]3O[C@@H](n4cnc5c(N)ncnc54)[C@H](O)[C@@H]3O)c2cc1C", "note": "[FAD]", "values": [{"measurement": "UV-visible absorption of enzyme-bound flavin, anaerobic reduction by D-malate", "value": "characteristic properties of a fully reduced PaD2HGDH-bound flavin, as previously reported"}]}
